# Source: patent publication US12637467B2, “Inhibitor of BTK and mutants thereof” (Newave Pharmaceutical Inc., priority 2019, dated 2026)
# “Also recorded” adds a separate entry of the source.
# Biological target: WT BTK (Homo sapiens, UniProt Q06187)
# Test: In vitro dialysis assay (irreversibility assay), WT BTK
# Type: biochemical
# Conditions: for Recovery after 24 h dialysis: 0.003 mM compound pre-incubated with 2 nM BTK for 2 hr, dialyzed 24 hr against buffer with 40 mM ATP, BTK activity vs non-dialyzed samples; for Conclusion (WT BTK): reversible or irreversible inhibition after 24 hr dialysis
# Experimental: The compound-enzyme complex was dialyzed against the same buffer supplemented with 40 mM ATP for 24 hr. Cumulative dialysis factor >160,000×. After dialysis, the BTK activity was measured in the presence 40 mM ATP and 1 mM substrate peptide and compared to that in non-dialyzed samples. Assay buffer: 100 mM HEPES, pH7.5; 0.1% BSA, 0.01% Triton-X 100; 5 mM MgCl2; 1 mM DTT.
# Chain of WT BTK (Q06187 whole entry): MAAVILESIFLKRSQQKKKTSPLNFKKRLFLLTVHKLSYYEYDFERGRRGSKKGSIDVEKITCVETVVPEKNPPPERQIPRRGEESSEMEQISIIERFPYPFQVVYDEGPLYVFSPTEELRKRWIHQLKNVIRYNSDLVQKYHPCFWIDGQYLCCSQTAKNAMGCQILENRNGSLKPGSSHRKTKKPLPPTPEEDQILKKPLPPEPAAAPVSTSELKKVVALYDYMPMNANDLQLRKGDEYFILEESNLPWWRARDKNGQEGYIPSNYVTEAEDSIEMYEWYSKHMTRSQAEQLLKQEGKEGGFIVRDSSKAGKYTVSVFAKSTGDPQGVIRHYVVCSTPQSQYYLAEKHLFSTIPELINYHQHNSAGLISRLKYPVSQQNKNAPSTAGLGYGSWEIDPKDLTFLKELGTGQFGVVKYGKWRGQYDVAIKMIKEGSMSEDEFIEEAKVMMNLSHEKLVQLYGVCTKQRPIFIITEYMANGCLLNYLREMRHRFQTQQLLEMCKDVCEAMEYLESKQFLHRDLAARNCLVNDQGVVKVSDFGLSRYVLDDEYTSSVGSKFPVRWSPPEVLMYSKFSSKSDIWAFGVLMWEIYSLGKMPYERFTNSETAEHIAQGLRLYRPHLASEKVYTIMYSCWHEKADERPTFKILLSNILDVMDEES
Recovery after 24 h dialysis,Conclusion (WT BTK),SMILES
~1%,Irreversible/covalent inhibition,"C=CC(=O)Nc1cc(Nc2nc(-c3ccnc(N4CCn5c(cc6c5CC(C)(C)C6)C4=O)c3CO)cn(C)c2=O)ccc1N1CCN(C2CCOC2)C[C@@H]1C (stereo partly drawn) [Example 39, N-(5-[[6-(2-[4,4-dimethyl-9-oxo-1,10-diazatricyclo[6.4.0.0^[2,6]]dodeca-2(6),7-dien-10-yl]-3-(hydroxymethyl)pyridin-4-yl)-4-methyl-3-oxopyrazin-2-yl]amino]-2-[(2S)-2-methyl-4-(oxolan-3-yl)piperazin-1-yl]phenyl)prop-2-enamide]"
~1%,Irreversible/covalent inhibition,"C=CC(=O)Nc1cc(Nc2nc(-c3ccnc(N4CCn5c(cc6c5CC(C)(C)C6)C4=O)c3CO)cn(C)c2=O)ccc1N1CCC(N2CCN(C)CC2)CC1 [Example 21, N-(5-[[6-(2-[4,4-dimethyl-9-oxo-1,10-diazatricyclo[6.4.0.0^[2,6]]dodeca-2(6),7-dien-10-yl]-3-(hydroxymethyl)pyridin-4-yl)-4-methyl-3-oxopyrazin-2-yl]amino]-2-[4-(4-methylpiperazin-1-yl)piperidin-1-yl]phenyl)prop-2-enamide]"
~1%,Irreversible/covalent inhibition,"C=CC(=O)Nc1cc(Nc2nc(-c3ccnc(N4CCn5c(cc6c5CC(C)(C)C6)C4=O)c3CO)cn(C)c2=O)ccc1N1CCN(C2CCC(F)(F)CC2)C[C@@H]1C [Example 23, N-[2-[(2S)-4-(4,4-difluorocyclohexyl)-2-methylpiperazin-1-yl]-5-[[6-(2-[4,4-dimethyl-9-oxo-1,10-diazatricyclo[6.4.0.0^[2,6]]dodeca-2(6),7-dien-10-yl]-3-(hydroxymethyl)pyridin-4-yl)-4-methyl-3-oxopyrazin-2-yl]amino]phenyl]prop-2-enamide]"
~1%,Irreversible/covalent inhibition,"C=CC(=O)Nc1cc(Nc2nc(-c3ccnc(N4CCc5c(sc6c5CCCC6)C4=O)c3CO)cn(C)c2=O)ccc1N1CCN(C2COC2)C[C@@H]1C [Example 36, N-[5-([6-[3-(hydroxymethyl)-2-[6-oxo-8-thia-5-azatricyclo[7.4.0.0 ^[2,7]]trideca-1(9),2(7)-dien-5-yl]pyridin-4-yl]-4-methyl-3-oxopyrazin-2-yl]amino)-2-[(2S)-2-methyl-4-(oxetan-3-yl)piperazin-1-yl]phenyl]prop-2-enamide]"
~1%,Irreversible/covalent inhibition,C=CC(=O)Nc1cc(Nc2nc(-c3ccnc(N4CCn5c(cc6c5CC(C)(C)C6)C4=O)c3CO)cn(C)c2=O)ccc1C1C(=O)N(C)CCN1C1COC1 (centres unmarked) [Example 41]
~1%,Irreversible/covalent inhibition,"C=CC(=O)Nc1cc(Nc2nc(-c3ccnc(N4CCn5c(cc6c5CC(C)(C)C6)C4=O)c3CO)cn(C)c2=O)ccc1N1CCC(N2CCC(F)(F)CC2)CC1 [Example 20, N-(2-[4,4-difluoro-[1,4′-bipiperidin]-1′-yl]-5-[[6-(2-[4,4-dimethyl-9-oxo-1,10-diazatricyclo[6.4.0.0^[2,6]]dodeca-2(6),7-dien-10-yl]-3-(hydroxymethyl)pyridin-4-yl)-4-methyl-3-oxopyrazin-2-yl]amino]phenyl)prop-2-enamide]"
~1%,Irreversible/covalent inhibition,"C=CC(=O)Nc1cc(Nc2nc(-c3ccnc(N4CCn5c(cc6c5CC(C)(C)C6)C4=O)c3C)cn(C)c2=O)ccc1N1CCN(C2COC2)CC1(C)C [Example 45, N-[2-[2,2-dimethyl-4-(oxetan-3-yl)piperazin-1-yl]-5-[[6-(2-[4,4-dimethyl-9-oxo-1,10-diazatricyclo[6.4.0.0^[2,6]]dodeca-2(6),7-dien-10-yl]-3-methylpyridin-4-yl)-4-methyl-3-oxopyrazin-2-yl]amino]phenyl]prop-2-enamide]"
~1%,Irreversible/covalent inhibition,"C=CC(=O)Nc1cc(Nc2nc(-c3ccnc(N4CCn5c(cc6c5CC(C)(C)C6)C4=O)c3CO)cn(C)c2=O)ccc1C1CN(C2COC2)CC(=O)N1C (centres unmarked) [Example 42, N-(5-[[6-(2-[4,4-dimethyl-9-oxo-1,10-diazatricyclo[6.4.0.0^[2,6]]dodeca-2(6),7-dien-10-yl]-3-(hydroxymethyl)pyri-din-4-yl)-4-methyl-3-oxopyrazin-2-yl]amino]-2-[1-methyl-4-(oxetan-3-yl)-6-oxopiperazin-2-yl]phenyl)prop-2-enamide]"
~1%,Irreversible/covalent inhibition,"C=CC(=O)Nc1cc(Nc2nc(-c3ccnc(N4CCn5c(cc6c5CC(C)(C)C6)C4=O)c3C)cn(C)c2=O)ccc1N1CCC(N2CCOCC2)CC1.Cl [Example 18, N-(5-[[6-(2-[4,4-dimethyl-9-oxo-1,10-diazatricyclo[6.4.0.0^[2,6]]dodeca-2(6),7-dien-10-yl]-3-methylpyridin-4-yl)-4-methyl-3-oxopyrazin-2-yl]amino]-2-[4-(morpholin-4-yl)piperidin-1-yl]phenyl)prop-2-enamide hydrochloride]"
,Irreversible/covalent inhibition,C=CC(=O)Nc1cc(Nc2nc(-c3ccnc(N4CCn5c(cc6c5CC(C)(C)C6)C4=O)c3CO)cn(C)c2=O)ccc1C1CN(C)C(=O)CN1C1COC1 (centres unmarked) [Example 43]
,Irreversible/covalent inhibition,"C=CC(=O)Nc1cc(Nc2nc(-c3ccnc(N4CCc5c(sc6c5CCCC6)C4=O)c3C)cn(C)c2=O)ccc1N1CCN(C2COC2)C[C@@H]1C [Example 44, (S)—N-(2-(2-methyl-4-(oxetan-3-yl)piperazin-1-yl)-5-((4-methyl-6-(3-methyl-2-(1-oxo-3,4,5,6,7,8-hexahydrobenzo [4, 5]thieno[2,3-c]pyridin-2(1H)-yl)pyridin-4-yl)-3-oxo-3,4-dihydropyrazin-2-yl)amino)phenyl) acrylamide]"
~1%,Irreversible/covalent inhibition,"C=CC(=O)Nc1cc(Nc2nc(-c3ccnc(N4CCCn5c(cc6c5CC(C)(C)C6)C4=O)c3CO)cn(C)c2=O)ccc1N1CCN([C@H]2C[C@@H](C)O[C@@H](C)C2)C[C@@H]1C [Example 38, N-(5-[[6-(2-[4,4-dimethyl-9-oxo-1,10-diazatricyclo[6.5.0.0^[2,6]]trideca-2(6),7-dien-10-yl]-3-(hydroxymethyl)pyridin-4-yl)-4-methyl-3-oxopyrazin-2-yl]amino]-2-[(2S)-2-methyl-4-[(2R,4r,6S)-2,6-dimethyloxan-4-yl]piperazin-1-yl]phenyl)prop-2-enamide]"
,Irreversible/covalent inhibition,"C=CC(=O)Nc1cc(Nc2nc(-c3ccnc(N4CCn5c(cc6c5CC(C)(C)C6)C4=O)c3C)cn(C)c2=O)ccc1N1CCC(N2CCOCC2)CC1C [Example 17, N-(5-[[6-(2-[4,4-dimethyl-9-oxo-1,10-diazatricyclo[6.4.0.0^[2,6]]dodeca-2(6),7-dien-10-yl]-3-methylpyridin-4-yl)-4-methyl-3-oxopyrazin-2-yl]amino]-2-[(2S)-2-methyl-4-(morpholin-4-yl)piperidin-1-yl]phenyl)prop-2-enamide]"

SMILES,Recovery after 24 h dialysis,Conclusion (WT BTK)
"C=CC(=O)Nc1cc(Nc2nc(-c3ccnc(N4CCn5c(cc6c5CC(C)(C)C6)C4=O)c3C)cn(C)c2=O)ccc1N1CCN(C2CCOCC2)C[C@@H]1C [Example 40, N-(5-[[6-(2-[4,4-dimethyl-9-oxo-1,10-diazatricyclo[6.4.0.0^[2,6]]dodeca-2(6),7-dien-10-yl]-3-methylpyridin-4-yl)-4-methyl-3-oxopyrazin-2-yl]amino]-2-[(2S)-2-methyl-4-(oxan-4-yl)piperazin-1-yl]phenyl)prop-2-enamide]",~1%,Irreversible/covalent inhibition
"C=CC(=O)Nc1cc(Nc2nc(-c3ccnc(N4CCn5c(cc6c5CC(C)(C)C6)C4=O)c3C)cn(C)c2=O)ccc1N1CCN(C2COC2)C[C@@H]1C [Example 11, (S)—N-(5-((6-(2-(7,7-dimethyl-1-oxo-1,3,4,6,7,8-hexahydro-2H-cyclopenta[4,5]pyrrolo[1,2-a]pyrazin-2-yl)-3-methylpyridin-4-yl)-4-methyl-3-oxo-3,4-dihydropyrazin-2-yl)amino)-2-(2-methyl-4-(oxetan-3-yl)piperazin-1-yl)phenyl)acrylamide]",,irreversible inhibitors; also recorded: Irreversible/covalent inhibition
"C=CC(=O)Nc1cc(Nc2nc(-c3ccnc(N4CCn5c(cc6c5CC(C)(C)C6)C4=O)c3C)cn(C)c2=O)cnc1N1CCN(C2COC2)C[C@@H]1C [Example 46, N-(5-[[6-(2-[4,4-dimethyl-9-oxo-1,10-diazatricyclo[6.4.0.0^[2,6]]dodeca-2(6),7-dien-10-yl]-3-methylpyridin-4-yl)-4-methyl-3-oxopyrazin-2-yl]amino]-2-[(2S)-2-methyl-4-(oxetan-3-yl)piperazin-1-yl]pyridin-3-yl)prop-2-enamide]",~1%,Irreversible/covalent inhibition
"C=CC(=O)Nc1cc(Nc2nc(-c3ccnc(N4CCn5c(cc6c5CC(C)(C)C6)C4=O)c3CO)cn(C)c2=O)ccc1N1CCC(N2CCOCC2)CC1C (centres unmarked) [Example 12, N-(5-((6-(2-(7,7-dimethyl-1-oxo-1,3,4,6,7,8-hexahydro-2H-cyclopenta[4,5]pyrrolo[1,2-a]pyrazin-2-yl)-3-(hydroxymethyl)pyridin-4-yl)-4-methyl-3-oxo-3,4-dihydropyrazin-2-yl)amino)-2-(2-methyl-4-morpholinopiperidin-1-yl)phenyl)acrylamide]",,irreversible inhibitors; also recorded: Irreversible/covalent inhibition
